Laboratory results reported in US20020111274A1, “1-alkyl-3-[1-(substituted phenyl) benzotriazol-6-yl] uracils” (BASF Aktiengesellschaft, priority 2000, published 2002).

What was measured:
Design in all cases: scale not given here
SETVI Foxtail, Green [1] = assay: Preemergence herbicidal evaluation, SETVI; format: in vivo, Setaria viridis, (L.) Beau; details: preemergence
Summary of the method: (§1)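 Seeds mixed with potting soil were planted on about one inch of soil in cups, then sprayed with the test compound in aqueous acetone at roughly 0.013 to 0.800 kg per hectare. Plants were kept under standard greenhouse care and injury was rated four to five weeks after treatment.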

ABUTH Velvetleaf = assay: Preemergence herbicidal evaluation, ABUTH; format: in vivo, Abutilon theophrasti, Medic.; details: preemergence
Summary of the method: as §1

CASOB Sicklepod = assay: Postemergence herbicidal evaluation, CASOB; format: in vivo, Cassia obtusifolia, L.; details: postemergence spray, rated about two-three weeks after treatment
Summary of the method: (§2)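 For this test, compound in an 80/20 acetone/water vehicle with 1.0% seed oil was sprayed over two-week-old seedlings at about 0.006 to 0.400 kg per hectare. Injury was assessed visually two to three weeks on.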

SETVI Foxtail, Green [2] = assay: Postemergence herbicidal evaluation, SETVI; format: in vivo, Setaria viridis, (L.) Beau; details: postemergence spray, rated about two-three weeks after treatment
Summary of the method: as §2

[3] = test system: CHEAL Lambsquarters, Common; assay: Preemergence herbicidal evaluation, CHEAL; format: in vivo, Chenopodium album, L.; details: preemergence
Summary of the method: as §1

GLXMAW Soybean, Williams = assay: Preemergence herbicidal evaluation, GLXMAW; format: in vivo, Glycine max, (L.) Merr. cv Williams; details: preemergence
Summary of the method: as §1

AMBEL Ragweed, Common = assay: Postemergence herbicidal evaluation, AMBEL; format: in vivo, Ambrosia artemisifolia, L.; details: postemergence spray, rated about two-three weeks after treatment
Summary of the method: as §2

[4] = test system: TRZAWR Wheat, Winter, cv Riband; assay: Preemergence herbicidal evaluation, TRZAWR; format: in vivo, Triticum aestivum; details: preemergence
Summary of the method: as §1

[5] = test system: IPOHE Morningglory, Ivyleaf; assay: Preemergence herbicidal evaluation, IPOHE; format: in vivo, Ipomoea hederacea, (L.) Jacq.; details: preemergence
Summary of the method: as §1

ZEAMX Corn, Field = assay: Preemergence herbicidal evaluation, ZEAMX; format: in vivo, Zea mays, L. (Sammel-Bezeichnung); details: preemergence
Summary of the method: as §1

ECHOG Barnyardgrass = assay: Preemergence herbicidal evaluation, ECHOG; format: in vivo, Echinochloa crus-galli, (L.) Beau; details: preemergence
Summary of the method: as §1

GALAP Galium = assay: Preemergence herbicidal evaluation, GALAP; format: in vivo, Galium aparine; details: preemergence
Summary of the method: as §1

For `COc1ccccc1-n1nnc2cc(F)c(-n3c(=O)cc(C(F)(F)F)n(C)c3=O)cc21` [Example 16, 3-[5-Fluoro-1-(2-Methoxyphenyl)-1H-1,2,3-Benzotriazol-6-yl]-1-Methyl-6-(Trifluoromethyl)-2,4(1H,3H)-Pyrmidinedione], the SETVI herbicidal rating (SETVI Foxtail, Green [1]; rate 0.016 kg/ha) was 9.0, the SETVI herbicidal rating (SETVI Foxtail, Green [1]; rate 0.032 kg/ha) was 9.0 and the SETVI herbicidal rating (SETVI Foxtail, Green [1]; rate 0.062 kg/ha) was 9.0. It also gave an SETVI herbicidal rating (SETVI Foxtail, Green [1]; rate 0.125 kg/ha) of 9.0, an ABUTH herbicidal rating (ABUTH Velvetleaf; rate 0.016 kg/ha) of 9.0 and an ABUTH herbicidal rating (ABUTH Velvetleaf; rate 0.032 kg/ha) of 9.0. The ABUTH herbicidal rating (ABUTH Velvetleaf; rate 0.062 kg/ha) was 9.0, the ABUTH herbicidal rating (ABUTH Velvetleaf; rate 0.125 kg/ha) was 9.0 and the “Postemergence herbicidal rating CASOB” value (CASOB Sicklepod; 0.008 kg/ha) was 6.0. The “Postemergence herbicidal rating CASOB” value (CASOB Sicklepod; 0.016 kg/ha) was 6.0, the “Postemergence herbicidal rating CASOB” value (CASOB Sicklepod; 0.032 kg/ha) was 6.0 and the “Postemergence herbicidal rating CASOB” value (CASOB Sicklepod; 0.062 kg/ha) was 9.0. The “Postemergence herbicidal rating SETVI” value (SETVI Foxtail, Green [2]; 0.008 kg/ha) was 2.0, the “Postemergence herbicidal rating SETVI” value (SETVI Foxtail, Green [2]; 0.016 kg/ha) was 5.0 and the “Postemergence herbicidal rating SETVI” value (SETVI Foxtail, Green [2]; 0.032 kg/ha) was 7.0. For the same molecule, the “Postemergence herbicidal rating SETVI” value (SETVI Foxtail, Green [2]; 0.062 kg/ha) was 9.0, the CHEAL herbicidal rating ([3]; rate 0.016 kg/ha) was 9.0 and the CHEAL herbicidal rating ([3]; rate 0.032 kg/ha) was 9.0. For the same molecule, the CHEAL herbicidal rating ([3]; rate 0.062 kg/ha) was 9.0, the CHEAL herbicidal rating ([3]; rate 0.125 kg/ha) was 9.0 and the GLXMAW herbicidal rating (GLXMAW Soybean, Williams; rate 0.016 kg/ha) was 9.0. The GLXMAW herbicidal rating (GLXMAW Soybean, Williams; rate 0.032 kg/ha) was 9.0, the GLXMAW herbicidal rating (GLXMAW Soybean, Williams; rate 0.062 kg/ha) was 9.0 and the GLXMAW herbicidal rating (GLXMAW Soybean, Williams; rate 0.125 kg/ha) was 9.0. For the same molecule, the “Postemergence herbicidal rating AMBEL” value (AMBEL Ragweed, Common; 0.008 kg/ha) was 2.0, the “Postemergence herbicidal rating AMBEL” value (AMBEL Ragweed, Common; 0.016 kg/ha) was 9.0 and the “Postemergence herbicidal rating AMBEL” value (AMBEL Ragweed, Common; 0.032 kg/ha) was 9.0. For the same molecule, the “Postemergence herbicidal rating AMBEL” value (AMBEL Ragweed, Common; 0.062 kg/ha) was 9.0, the TRZAWR herbicidal rating ([4]; rate 0.016 kg/ha) was 6.0 and the TRZAWR herbicidal rating ([4]; rate 0.032 kg/ha) was 8.0. For the same molecule, the TRZAWR herbicidal rating ([4]; rate 0.062 kg/ha) was 8.0, the TRZAWR herbicidal rating ([4]; rate 0.125 kg/ha) was 9.0 and the IPOHE herbicidal rating ([5]; rate 0.016 kg/ha) was 3.0. The IPOHE herbicidal rating ([5]; rate 0.032 kg/ha) was 3.0, the IPOHE herbicidal rating ([5]; rate 0.062 kg/ha) was 9.0 and the IPOHE herbicidal rating ([5]; rate 0.125 kg/ha) was 9.0. For the same molecule, the ZEAMX herbicidal rating (ZEAMX Corn, Field; rate 0.016 kg/ha) was 8.0, the ZEAMX herbicidal rating (ZEAMX Corn, Field; rate 0.032 kg/ha) was 7.0 and the ZEAMX herbicidal rating (ZEAMX Corn, Field; rate 0.062 kg/ha) was 8.0. It also gave a ZEAMX herbicidal rating (ZEAMX Corn, Field; rate 0.125 kg/ha) of 8.0, an ECHCG herbicidal rating (ECHOG Barnyardgrass; rate 0.016 kg/ha) of 9.0 and an ECHCG herbicidal rating (ECHOG Barnyardgrass; rate 0.032 kg/ha) of 9.0. The ECHCG herbicidal rating (ECHOG Barnyardgrass; rate 0.062 kg/ha) was 9.0, the ECHCG herbicidal rating (ECHOG Barnyardgrass; rate 0.125 kg/ha) was 9.0 and the GALAP herbicidal rating (GALAP Galium; rate 0.016 kg/ha) was 0.0. The GALAP herbicidal rating (GALAP Galium; rate 0.032 kg/ha) was 0.0, the GALAP herbicidal rating (GALAP Galium; rate 0.062 kg/ha) was 9.0 and the GALAP herbicidal rating (GALAP Galium; rate 0.125 kg/ha) was 9.0.
